From patent publication US6004965A, “Sulfonamides” (Hoffmann-La Roche Inc., priority 1994, dated 1999)

Tests used:
human ETA receptors = molecular target: T1, human ETA receptors (Homo sapiens, UniProt P25101); assay: Inhibition of endothelin binding to recombinant ETA receptors; conditions: baculovirus-insect cell membranes, 20 pM 125I-endothelin, 20° C. for 2 hours or 4° C. for 24 hours, read-out: IC50 (inhibition of specific binding of 125I-endothelin)
T1 construct: made in house; host or cells: baculovirus-infected insect cells (membrane preparation)
T1 sequence (P25101 21-427): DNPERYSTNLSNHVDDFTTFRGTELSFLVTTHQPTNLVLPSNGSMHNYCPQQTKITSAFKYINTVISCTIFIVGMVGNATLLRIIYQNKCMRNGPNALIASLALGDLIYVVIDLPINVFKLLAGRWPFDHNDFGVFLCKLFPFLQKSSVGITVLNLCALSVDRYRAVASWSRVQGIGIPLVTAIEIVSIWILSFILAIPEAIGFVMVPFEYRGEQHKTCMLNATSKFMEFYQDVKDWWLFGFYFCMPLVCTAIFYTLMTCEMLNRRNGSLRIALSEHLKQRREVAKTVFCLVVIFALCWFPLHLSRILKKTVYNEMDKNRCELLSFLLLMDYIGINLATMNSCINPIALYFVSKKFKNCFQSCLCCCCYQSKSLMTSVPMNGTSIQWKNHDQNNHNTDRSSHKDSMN
Protocol: I: […] A cDNA coding for human ETA receptors of human placenta was cloned ([…]. Yang, Y. Furuichi and C. Miyamoto, BBRC 180, 1265-1272) and expressed in the baculovirus-insect cell system. Baculovirus-infected insect cells from a 23 l fermenter are centrifuged off (3000×g, 15 minutes, 4° C.) 60 hours after the infection, re-suspended in Tris buffer (5 mM, pH 7.4, 1 mM MgCl2) and again centrifuged. After a further re-suspension and centrifugation the cells are suspended in 800 ml of the same buffer and […] at -120° C. The cells disintegrate when the suspension in this hypotonic buffer mixture is thawed. After a repeated freeze-drying/thawing cycle the suspension is homogenized and centrifuged (25000×g, 15 minutes, 4° C.). After suspension in Tris buffer (75 mM, pH 7.4, 25 mM MgCl2, 250 mM sucrose) 1 ml aliquots (protein content about 3.5 mg/ml) are stored at -85° C. […] The incubation is carried out at 20° C. for 2 hours or at 4° C. for 24 hours. The separation of free and membrane-bound radio-ligands is carried out by filtration over a glass fibre filter.

[1] = molecular target: T2, endothelin-induced contractions in isolated rat aorta rings (Rattus norvegicus, UniProt P26684); assay: Inhibition of endothelin-induced contractions in isolated rat aorta rings; format: cell-based, rat (Wistar-Kyoto); conditions: read-out: pA2 value; Dose ratio (switch to the right) (converted)
T2 construct: cut out from the thorax aorta of adult Wistar-Kyoto rats; from tissue; host or cells: thoracic aorta rings of adult Wistar-Kyoto rats, endothelium removed
T2 sequence (P26684 21-426): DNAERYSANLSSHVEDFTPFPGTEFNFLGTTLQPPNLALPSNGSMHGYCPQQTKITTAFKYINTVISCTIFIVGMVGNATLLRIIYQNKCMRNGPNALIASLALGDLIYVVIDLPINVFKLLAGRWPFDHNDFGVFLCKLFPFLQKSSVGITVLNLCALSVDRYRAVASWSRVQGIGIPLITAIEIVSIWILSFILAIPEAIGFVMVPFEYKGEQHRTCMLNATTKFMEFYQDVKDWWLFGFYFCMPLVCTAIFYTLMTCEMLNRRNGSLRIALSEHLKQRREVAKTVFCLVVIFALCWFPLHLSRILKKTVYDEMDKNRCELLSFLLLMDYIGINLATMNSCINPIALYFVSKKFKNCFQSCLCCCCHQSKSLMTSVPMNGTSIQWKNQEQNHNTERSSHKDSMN
Protocol: Rings with a length of 5 mm were cut out from the thorax aorta of adult Wistar-Kyoto rats. The endothelium was removed by lightly rubbing the internal surface. Each ring was immersed at 37° C. in 10 ml of Krebs-Henseleit solution in an isolated bath while gassing with 95% O2 and 5% CO2. The isometric stretching of the rings was measured. The rings were stretched to a pre-tension of 3 g.
The corresponding pA2 value, which is a measure of the activity of the test compound, was calculated using a computer programme according to the following equation from the "dose ratio" DR for each individual dosage-activity curve.
pA2 =log(DR-1)-log(antagonist-concentration)

Compound	IC50 (human ETA receptors)	Kb [1]
COc1ccccc1Oc1c(NS(=O)(=O)c2ccc(C(C)(C)C)cc2)nc(-c2ccnc(-c3nnn[nH]3)c2)nc1OCCOC(=O)Nc1ccccn1 [Example 4, 2-[6-(4-tert-butyl-phenylsulphonylamino)-5-(2-methoxy-phenoxy)-2-(2-1H-tetrazol-5-yl-pyridin-4-yl)-pyrimidin-4-yl-oxy]-ethyl pyridin-2-ylcarbamate]	6000 pM	251 pM
COc1ccccc1Oc1c(NS(=O)(=O)c2ccc(C)cn2)nc(-c2ccnc(-c3nnn[nH]3)c2)nc1OCCO [Example 29, 5-methyl-pyridine-2-sulphonic acid 6-(2-hydroxy-ethoxy)-5-(2-methoxy-phenoxy)-2-(2-1H-tetrazol-5-yl-pyridin-4-yl)-pyrimidin-4-ylamide]	4000 pM	100 pM
COc1ccccc1Oc1c(NS(=O)(=O)c2ccccc2)nc(-c2ccnc(-c3nnn[nH]3)c2)nc1OCCOC(=O)Nc1ccccn1 [Example 35, 2-[5-(2-methoxy-phenoxy)-6-phenyl-sulphonylamino-2-(2-1H-tetrazol-5-yl-pyridin-4-yl)-pyrimidin-4-yloxy]-ethyl pyridin-2-ylcarbamate]	2000 pM	316 pM
COc1ccccc1Oc1c(NS(=O)(=O)c2ccc(C)cc2)nc(-c2ccnc(-c3nnn[nH]3)c2)nc1OCCOC(=O)Nc1ccccn1 [Example 36, 2-[5-(2-methoxy-phenoxy)-6-(4-methyl-phenylsulphonylamino)-2-(2-1H-tetrazol-5-yl-pyridin-4-yl)-pyrimidin-4-yloxy]-ethyl pyridin-2-ylcarbamate]	8000 pM	398 pM
COc1ccccc1Oc1c(NS(=O)(=O)c2ccc(SC)cc2)nc(-c2ccnc(-c3nnn[nH]3)c2)nc1OCCOC(=O)Nc1ccccn1 [Example 40, 2-[5-(2-methoxy-phenoxy)-6-(4-methylsulphanylphenylsulphonylamino)-2-(2-1H-tetrazol-5-yl-pyridin-4-yl)-pyrimidin-4-yloxy]-ethyl pyridin-2-ylcarbamate]	8000 pM	63.1 pM
COc1ccccc1Oc1c(NS(=O)(=O)c2ccc3c(c2)OCO3)nc(-c2ccnc(-c3nnn[nH]3)c2)nc1OCCOC(=O)Nc1ccccn1 [Example 41, 2-[6-(1,3-benzodioxol-5-yl-sulphonylamino)-5-(2-methoxy-phenoxy)-2-(2-1H-tetrazol-5-yl-pyridin-4-yl)-pyrimidin-4-yloxy]-ethyl pyridin-2-ylcarbamate]	1000 pM	25.1 pM
